Measured values: US11434242B2, “Dopamine-b-hydroxylase inhibitors” (BIAL-PORTELA & Cª, S.A., priority 2017, dated 2022)
pIC50: −log10 of the molar value. Where two headings read alike, the source gives them in different places. Marks after values point to notes of the source that are not given here.

What was measured:
[1] = literature; cited from earlier work
DβH [2] = conditions: Stanley et al., Br. J. Pharmacol. 1997; cited from earlier work
DβH [3] = target: T1, DβH (Homo sapiens, UniProt P09172); assay: DβH inhibition assay in SK-N-SH cellular homogenates (tyramine to octopamine); assay type: biochemical; conditions: SK-N-SH cell homogenate; for SKNSH (0.1 μM), activity in % of control: inhibitor 0.1 μM; for SKNSH (1 μM), activity in % of control: inhibitor 1 μM
T1 construct: cellular homogenate (75 μg total protein); host or cells: SK-N-SH cells (homogenate)
T1 sequence (P09172 1-617): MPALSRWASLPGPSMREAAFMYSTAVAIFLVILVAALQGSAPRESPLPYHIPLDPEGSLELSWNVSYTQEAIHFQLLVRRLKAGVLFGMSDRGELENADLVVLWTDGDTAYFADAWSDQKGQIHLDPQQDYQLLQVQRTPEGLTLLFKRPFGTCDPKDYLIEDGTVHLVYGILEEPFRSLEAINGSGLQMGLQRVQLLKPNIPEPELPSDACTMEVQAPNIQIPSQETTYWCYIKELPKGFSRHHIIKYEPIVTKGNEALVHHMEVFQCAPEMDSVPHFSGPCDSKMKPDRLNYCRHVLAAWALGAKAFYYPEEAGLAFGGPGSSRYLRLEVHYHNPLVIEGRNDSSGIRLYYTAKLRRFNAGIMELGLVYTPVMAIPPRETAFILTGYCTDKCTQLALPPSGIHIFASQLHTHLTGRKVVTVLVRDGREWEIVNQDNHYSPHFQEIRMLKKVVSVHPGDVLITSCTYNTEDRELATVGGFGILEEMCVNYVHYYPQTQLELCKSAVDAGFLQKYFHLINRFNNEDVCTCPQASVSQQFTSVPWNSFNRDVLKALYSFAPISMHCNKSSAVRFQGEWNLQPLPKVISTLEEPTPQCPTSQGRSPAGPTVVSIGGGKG

[4] = target: T2, Dopamine beta hydroxylase (Homo sapiens, UniProt P09172); assay: Dopamine beta hydroxylase activity in human plasma; assay type: biochemical; conditions: for Plasma (1 μM), activity in % of control: inhibitor 1 μM
T2 construct: 125 μl of plasma; tissue Instituto Português do Sangue Transplantação; host or cells: human plasma from healthy donors
T2 sequence (P09172 40-617 limits assumed): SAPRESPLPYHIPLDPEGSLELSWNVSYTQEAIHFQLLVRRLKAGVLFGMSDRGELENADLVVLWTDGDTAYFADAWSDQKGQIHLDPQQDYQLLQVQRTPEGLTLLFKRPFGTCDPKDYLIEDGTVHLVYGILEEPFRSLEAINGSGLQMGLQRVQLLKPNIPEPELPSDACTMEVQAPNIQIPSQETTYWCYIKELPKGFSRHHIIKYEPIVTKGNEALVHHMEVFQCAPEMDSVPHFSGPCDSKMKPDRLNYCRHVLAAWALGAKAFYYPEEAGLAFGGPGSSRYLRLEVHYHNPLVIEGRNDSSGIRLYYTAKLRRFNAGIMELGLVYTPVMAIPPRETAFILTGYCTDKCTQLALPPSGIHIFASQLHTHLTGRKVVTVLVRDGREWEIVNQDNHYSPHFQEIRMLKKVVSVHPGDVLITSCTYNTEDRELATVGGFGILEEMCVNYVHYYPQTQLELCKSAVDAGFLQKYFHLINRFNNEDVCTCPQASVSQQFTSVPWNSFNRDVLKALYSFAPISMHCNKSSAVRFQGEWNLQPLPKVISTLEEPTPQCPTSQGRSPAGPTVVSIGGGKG
How it was run: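 Octopamine production from tyramine over 45 min at 37° C, measured photometrically at 330 nm after SCX extraction and periodate oxidation against an octopamine standard curve, indicates plasma DβH activity. Compounds tested at final 10, 100 and 1000 nM in human plasma, pH 5.0 cofactor buffer, 10 min preincubation; results as % of control.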

[5] = Evaluation of pharmacokinetic profile: plasma and brain concentrations after oral dosing; assay type: in vivo, Wistar rats; conditions: rat, 10 mg/kg po; for concentration at 1 h / concentration at 2 h: male, Wistar; for concentration at 1 h: 1 h post-dosing; for concentration at 2 h: 2 h post-dosing
Description: Adult male Wistar rats were kept under controlled environmental conditions (12 h light/dark cycle, room temperature 22±1° C. and humidity 50±5%, food and tap water ad libitum). On the day before the experiment, the animals were fasted. In experiments designed to evaluate the pharmacokinetic profile of Examples 56, 66, 199 and 232, rats (n=4) were administered orally (p.o.) with examples 56, 66, 199 and 232 (10 mg/kg/4 mL; vehicle: 40% kleptose) and plasma and brain samples were collected from anaesthetized animals at 1 and 2 h post-dosing. Animals were anaesthetized by intraperitoneal administration of sodium pentobarbital (60 mg/kg). Blood was collected from cardiac punction into heparinised tubes and kept on ice until centrifugation at 1,500 g for 15 min at 4° C. Plasma and brain samples were stored at less than −20° C. until analysis.
After thawing, 200 μL of acetonitrile 0.1% formic acid was added to 100 μL of plasma. The samples were vortexed and centrifuged for 10 min at 10 000 g. Supernatant was filtered and injected into a mass spectrometer.
After thawing and weighing, water was added to the brain to give a tissue concentration of […]. The samples were then homogenized using a Heidolph DIAX 900 mixer and transferred to plastic tubes. Following centrifugation at 10 000 g for 20 min, supernatant was taken and treated as described for plasma.

[6] = brain, read-out: Cbr (ng/g) at 1 h
[7] = brain, read-out: Cbr (ng/g) at 2 h
[8] = plasma, read-out: Cpl (ng/mL) at 1 h
[9] = plasma, read-out: Cpl (ng/mL) at 2 h

| Compound | SKNSH (0.1 μM), activity in % of control (DβH [3]) | SKNSH (1 μM), activity in % of control (DβH [3]) | Plasma (0.1 μM), activity in % of control ([4]; inhibitor 0.1 μM) | Plasma (1 μM), activity in % of control [4] | concentration at 1 h [5, 6] [ng/g] | concentration at 2 h [5, 7] [ng/g] | concentration at 1 h [5, 8] [ng/mL] | concentration at 2 h [5, 9] [ng/mL] | peripheral selectivity (exposure in plasma compared to brain) [5] | also measured |
| --- | --- | --- | --- | --- | --- | --- | --- | --- | --- | --- |
| CCCCc1ccc(C(=O)O)nc1 [fusaric acid] |  |  |  |  |  |  |  |  |  | toxic side effects [1]: toxic side effects |
| CCN(CC)C(=S)SSC(=S)N(CC)CC [disulfiram] |  |  |  |  |  |  |  |  |  | toxic side effects [1]: toxic side effects |
| NCc1c[nH]c(=S)n1[C@H]1CCc2c(F)cc(F)cc2C1 [nepicastat] |  |  |  |  |  |  |  |  |  | pIC50 (DβH [2]): 8.05; crossing of the BBB [1]: cross the BBB |
| NC(=O)Cc1[nH]c(=S)n2c1[C@@H]1C[C@]1(c1cc(Cl)ccc1F)C2 [Example 56] | 45.6 % of control | 5.2 % of control | 38.5 % of control | 5.5 % of control | 20 | 21 | 1500 | 1130 | peripherally selective |  |
| Cn1c(CC(=O)N[C@@H]2CCOC2)c2n(c1=S)C[C@H](c1c(F)ccc(Br)c1F)C2 [Example 232, 2-((S)-6-(3-bromo-2,6-difluorophenyl)-2-methyl-3-thioxo-2,5,6,7-tetrahydro-3H-pyrrolo[1,2-c]imidazol-1-yl)-N—((R)-tetrahydrofuran-3-yl)acetamide] |  |  | 6.4 % of control |  | 24 | 46 | 1710 | 1310 | peripherally selective | Plasma (0.01 μM), activity in % of control ([4]; inhibitor 0.01 μM): 48.8 % of control |
| O=C(O)Cc1[nH]c(=S)n2c1[C@@H]1C[C@]1(c1cc(Cl)ccc1F)C2 [Example 52, 2-((5aS,6aR)-5a-(5-chloro-2-fluorophenyl)-3-thioxo-2,3,5,5a,6,6a-hexahydrocyclopropa[3,4]pyrrolo[1,2-c]imidazol-1-yl)acetic Acid] | 9.2 % of control | 0.2 % of control | 10.3 % of control | 1.6 % of control |  |  |  |  |  |  |
| CCN(CC)C(=S)S [diethyldithiocarbamate] |  |  |  |  |  |  |  |  |  | toxic side effects [1]: toxic side effects |
| O=C(O)Cc1[nH]c(=S)n2c1[C@@H]1C[C@]1(c1c(F)ccc(Br)c1F)C2 [Example 51, 2-((5aS,6aR)-5a-(3-bromo-2,6-difluorophenyl)-3-thioxo-2,3,5,5a,6,6a-hexahydrocyclopropa[3,4]pyrrolo[1,2-c]imidazol-1-yl)acetic Acid] | 0.4 % of control | 0 % of control | 5.7 % of control | 0 % of control |  |  |  |  |  |  |
| CCOC(=O)Cc1[nH]c(=S)n2c1[C@@H]1C[C@]1(c1cc(F)cc(Cl)c1)C2 [Example 55, Ethyl 2-((5aS,6aR)-5a-(3-chloro-5-fluorophenyl)-3-thioxo-2,3,5,5a,6,6a-hexahydrocyclopropa[3,4]pyrrolo[1,2-c]imidazol-1-yl)acetate] | 48.9 % of control | 3.9 % of control | 62.1 % of control | 11.1 % of control |  |  |  |  |  |  |
| Cl.Fc1cc(F)c(F)c([C@H]2Cc3c(CCN4CCOCC4)[nH]c(=S)n3C2)c1F [Example 199, (R)-1-(2-morpholinoethyl)-6-(2,3,5,6-tetrafluorophenyl)-2,5,6,7-tetrahydro-3H-pyrrolo[1,2-c]imidazole-3-thione Hydrochloride] |  |  | 0.6 % of control |  | 45 | 0 | 1640 | 777 | peripherally selective | Plasma (0.01 μM), activity in % of control ([4]; inhibitor 0.01 μM): 27.4 % of control; Plasma (0.01 μM), activity in % of control, re-test (asterisked) ([4]; inhibitor 0.01 μM, re-tested under the same experimental conditions, asterisked data believed to be correct): 119.3* % of control; Plasma (0.1 μM), activity in % of control, re-test (asterisked) ([4]; inhibitor 0.1 μM, re-tested under the same experimental conditions, asterisked data believed to be correct): 84.9* % of control |
| O=C(Cc1[nH]c(=S)n2c1[C@@H]1C[C@]1(c1cc(Cl)ccc1F)C2)N1CCOCC1 [Example 66, 2-((5aS,6aR)-5a-(5-chloro-2-fluorophenyl)-3-thioxo-2,3,5,5a,6,6a-hexahydrocyclopropa[3,4]pyrrolo[1,2-c]imidazol-1-yl)-1-morpholinoethan-1-one] |  |  | 52.3 % of control | 6.4 % of control | 0 | 0 | 779 | 429 | peripherally selective |  |
